Values quoted from earlier work in US9011898B2, “Composition for active principles delivery containing a fatty acid excipient” (CID S.p.A., priority 2010, dated 2015).

Conditions: aqueous solutions

CO[C@H]1C[C@@H]2CC[C@@H](C)[C@@](O)(O2)C(=O)C(=O)N2CCCC[C@H]2C(=O)O[C@H]([C@H](C)C[C@@H]2CC[C@@H](O)[C@H](OC)C2)CC(=O)[C@H](C)/C=C(\C)[C@@H](O)[C@@H](OC)C(=O)[C@H](C)C[C@H](C)/C=C/C=C/C=C/1C [Sirolimus]
Stability in aqueous environments at neutral or basic pH with respect to acidic pH: less stable
